Experimental data as given in PubChem BioAssay (NCI).
Several values for one entry are separate records, joined by “and”; a condition that tells them apart may be missing. Equal entries are not always repeated.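 Briefly, cells in 96-well plates were exposed to five compound concentrations for 48 h, and endpoints were estimated by linear interpolation. At the GI50, growth is halved. TGI: concentration producing complete growth inhibition.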

Columns and labels:
Experiment in all cases: inhibition of tumour cell growth, NCI panel, 48 h
SW-620 colon = system: SW-620 colon
UACC-62 melanoma = system: UACC-62 melanoma
HOP-62 NSCLC = system: HOP-62 NSCLC
BT-549 breast = system: BT-549 breast
OVCAR-5 ovarian = system: OVCAR-5 ovarian
PC-3 prostate = system: PC-3 prostate
TK-10 renal = system: TK-10 renal
MDA-MB-231 breast = system: MDA-MB-231 breast
CAKI-1 renal = system: CAKI-1 renal
HCT-15 colon = system: HCT-15 colon

SMILES | TGI (SW-620 colon) [µM] | TGI (UACC-62 melanoma) | TGI (HOP-62 NSCLC) | TGI (BT-549 breast) | TGI (OVCAR-5 ovarian) | TGI (PC-3 prostate) | TGI (TK-10 renal) | TGI (MDA-MB-231 breast) [µM] | TGI (CAKI-1 renal) | TGI (HCT-15 colon) | GI50 (UACC-62 melanoma) [µM] | GI50 (HOP-62 NSCLC) [µM] | GI50 (BT-549 breast) [µM] | GI50 (OVCAR-5 ovarian) [µM] | GI50 (PC-3 prostate) [µM] | GI50 (TK-10 renal) [µM] | GI50 (CAKI-1 renal) [µM] | GI50 (HCT-15 colon) [µM]
COc1ccc(N2NC(c3ccccc3)(c3ccccc3)C(C)C2=O)cc1 (centres undefined) | > 100 | > 100 µM | > 100 µM | > 100 µM | > 100 µM | > 100 µM | > 100 µM | > 100 | > 100 µM | > 100 µM |  |  |  |  |  |  |  | 
O=c1c2ccccc2nc(N/N=C/c2ccccc2O)n1-c1ccccc1 | > 100 | 7.1 µM | > 100 µM | > 100 µM | > 100 µM | > 100 µM | > 100 µM | > 100 | > 100 µM | > 100 µM |  |  |  |  |  |  |  | 
O=C1C(=Cc2ccc(Cl)c(Cl)c2)C([O-])=C([P+](c2ccccc2)(c2ccccc2)c2ccccc2)C([O-])=C1[P+](c1ccccc1)(c1ccccc1)c1ccccc1 | 6.75 | 5.29 µM | 7.8 µM | 5.19 µM | 12.6 µM | 3.79 µM | 5.6 µM | 8.78 | 6.78 µM | 13.8 µM |  |  |  |  |  |  |  | 
CNc1ncnc2c1cnn2Cc1cn(COCC(O)CO)nn1 (centres undefined) | > 100 | > 100 µM | > 100 µM | > 100 µM | > 100 µM | > 100 µM | > 100 µM | > 100 | > 100 µM | > 100 µM |  |  |  |  |  |  |  | 
Cc1ccc(N=C2C(=Nc3ccc(C)cc3)N(c3ccc(C)cc3)C(=S)N2C(=O)c2ccccc2)cc1 | > 100 | > 100 µM | > 100 µM | > 100 µM | > 100 µM | > 100 µM | > 100 µM | > 100 | > 100 µM | > 100 µM |  |  |  |  |  |  |  | 
N#CC(C#N)=C1C(=O)NC(N)=C1C#N | > 100 | > 100 µM | > 100 µM | > 100 µM | > 100 µM | > 100 µM | > 100 µM | > 100 | > 100 µM | > 100 µM |  |  |  |  |  |  |  | 
CSc1scc2c1/C(=N/NC(N)=O)CCC2 | > 100 | > 100 µM | > 100 µM | > 100 µM | > 100 µM | > 100 µM | > 100 µM | > 100 | > 100 µM | > 100 µM |  |  |  |  |  |  |  | 
Cc1c(C(=O)O)n2cnnc2c2ccccc12 | > 100 | > 100 µM | > 100 µM | > 100 µM | > 100 µM | > 100 µM | > 100 µM | > 100 | > 100 µM | > 100 µM |  |  |  |  |  |  |  | 
CCCCCCCCCCCCCC(=O)N(CCCCCCCCC)CC(O)C(O)C(OC1OC(CO)C(O)C(O)C1O)C(O)CO (centres undefined) | 36.5 | 38.2 µM | 47.4 µM | 43.7 µM | > 100 µM | 54.6 µM | 33.7 µM | 37.2 | 30.6 µM | 49.7 µM |  |  |  |  |  |  |  | 
COc1ccc(C(=O)/C=C/c2cc(O)c(O)cc2F)c(OC)c1 | > 55.3 | 23.1 µM | 31.1 µM | 24.4 µM | 33.5 µM | 25.4 µM | 66.3 µM | 64.3 | > 100 µM | > 40.9 µM |  |  |  |  |  |  |  | 
[N-]=[N+]=Nc1c([N+](=O)[O-])c(=O)n2c3c(cccc13)CCC2 | 13.9 | 29.9 µM | > 100 µM | 32.7 µM | 30.2 µM | 30.7 µM | 34.3 µM | 25.9 | 27.9 µM | 17.8 µM |  |  |  |  |  |  |  | 
O=[N+]([O-])C(Cl)=C/C(=C(\Cl)SCc1ccccc1)[N+](=O)[O-] | 59.3 | > 100 µM | 36.2 µM | 50.2 µM | 52.4 µM | 48.1 µM | 48.3 µM | 59.3 | 34.2 µM | 35.5 µM |  |  |  |  |  |  |  | 
NC(N)=NCCCC(NC(=O)OCCCCn1ccc(N)nc1=O)C(=O)O (centres undefined) | > 100 | > 100 µM | > 100 µM | > 100 µM | > 100 µM | > 100 µM | > 100 µM | > 100 | > 100 µM | > 100 µM |  |  |  |  |  |  |  | 
C=C(C(=O)O[C@H]1C(=O)C2=C(C)CCC3C(=C)C(=O)O[C@@H]3C2[C@]1(C)O)C1CC[C@]2(C)CCCC(=C)[C@H]2C1 (some centres undefined) | 21.2 | 9.79 µM and 31.6 µM | 10.2 µM and 20.5 µM | 14 µM and 11.1 µM | 25 µM and 41 µM | 10.4 µM and 16.8 µM | 12.3 µM and 6.78 µM | 13.8 | 10.2 µM and 25.3 µM | 8.77 µM and 12.8 µM | 16.9 | 3.09 | 6.99 | 9.64 | 4.08 | 6 | 3.67 | 1.92
CC(=O)/C(=C/N1CCNC1=S)C(=O)Nc1ccccc1C | > 100 | > 100 µM | > 100 µM | > 100 µM | > 100 µM | > 100 µM | > 100 µM | > 100 | > 100 µM | > 100 µM |  |  |  |  |  |  |  | 
C[C@H]1COC2=C1C(=O)C(=O)c1c2ccc2c1CCCC2(C)C | 34.5 | 8.2 µM | 21.2 µM | 5.71 µM | > 91.4 µM | > 64.5 µM | 65.9 µM | > 100 | > 54.9 µM | 18.6 µM |  |  |  |  |  |  |  | 
Brc1ccc2c(-c3csc(-c4c[nH]c5ccccc45)n3)c[nH]c2c1 | 30.1 | 35.9 µM | 30.8 µM | 37.4 µM | 32.7 µM | 28.9 µM | 27.5 µM | 31 | 33.4 µM | 28.5 µM |  |  |  |  |  |  |  | 15.2

SMILES | TGI (SW-620 colon) [µM] | TGI (UACC-62 melanoma) | TGI (HOP-62 NSCLC) | TGI (BT-549 breast) | TGI (OVCAR-5 ovarian) | TGI (PC-3 prostate) | TGI (TK-10 renal) | TGI (MDA-MB-231 breast) [µM] | TGI (CAKI-1 renal) | TGI (HCT-15 colon) | GI50 (UACC-62 melanoma) [µM] | GI50 (HOP-62 NSCLC) [µM] | GI50 (BT-549 breast) [µM] | GI50 (OVCAR-5 ovarian) [µM] | GI50 (PC-3 prostate) [µM] | GI50 (TK-10 renal) [µM] | GI50 (CAKI-1 renal) [µM] | GI50 (HCT-15 colon) [µM]
CC1(C)CCc2c(c(N=Nc3ccc(F)cc3)c3ccccc3c2O)O1 | > 100 | 31.3 µM | 57.3 µM | > 100 µM | > 100 µM | > 100 µM | > 100 µM | > 100 | > 100 µM | > 100 µM |  |  |  |  |  |  |  | 
Cn1c(O)c(C=Nc2ccccc2Cl)c(=O)n(C)c1=O | > 100 | > 100 µM | 52.4 µM | > 100 µM | 63.2 µM | > 100 µM | > 100 µM | > 100 | > 100 µM | 41.4 µM |  |  |  |  |  |  |  | 
Cc1sc2nc3n(c(=O)c2c1C)N=CN(c1ccc(F)cc1)C3 | > 100 | > 100 µM | > 100 µM | > 100 µM | > 100 µM | > 100 µM | > 100 µM | > 100 | > 100 µM | > 100 µM |  |  |  |  |  |  |  | 
COc1cc(CS(=O)c2ccc(O)cc2)cc(OC)c1OC (centres undefined) | > 100 | > 100 µM | > 100 µM | > 100 µM | > 100 µM | > 100 µM | > 100 µM | > 100 | > 100 µM | > 100 µM |  |  |  |  |  |  |  | 
O=C(O)C(=O)/C=C(\O)c1ccc(Br)cc1 | > 100 | > 100 µM | > 100 µM | > 100 µM | > 100 µM | > 100 µM | > 100 µM | > 100 | > 100 µM | > 100 µM |  |  |  |  |  |  |  | 
C=C1CN(C2=NCCO2)C1 | > 100 | > 100 µM | > 100 µM | > 100 µM | > 100 µM | > 100 µM | > 100 µM | > 100 | > 100 µM | > 100 µM |  |  |  |  |  |  |  | 
CCOc1ccc2c(c1)c(=O)c1c(NCCN(CC)CC)ccc3nnn2c31 | 31.5 | > 100 µM | > 48.8 µM | > 100 µM | > 54.8 µM | 49.7 µM | 37.9 µM | 58.5 | 41.6 µM | 48.2 µM |  |  |  |  |  |  |  | 
C=C1C(=O)OC2CC3(C)OC3CC/C(C)=C/C(OC(C)=O)C12 (centres undefined) | 4.89 | 22.9 µM | 33.5 µM | 22.2 µM | 23 µM | 26 µM | 12.8 µM | 24.8 | 6.24 µM | 19.3 µM |  |  |  |  |  |  |  | 
Oc1cc(Br)cc2cc(Cl)cnc12 | > 46.2 | 6.1 µM | > 60.4 µM | 47.6 µM | > 100 µM | > 100 µM | > 94.3 µM | > 100 | 85.9 µM | > 100 µM |  |  |  |  |  |  |  | 
CCN1CCC(O)(/C=C/c2ccc(C(C)C)cc2)C(C(=O)/C=C/c2ccc(C(C)C)cc2)C1 (centres undefined) | 7.25 | 15.7 µM | 13.3 µM | 16.2 µM | 12 µM | 11.4 µM | 6.16 µM | 3.82 | 8.86 µM | 4.63 µM |  |  |  |  |  |  |  | 
CC(C)(C)OC(=O)NCC(=O)N1CCN(C(=O)CNC(=O)OC(C)(C)C)CC1 | > 100 | > 100 µM | > 100 µM | > 100 µM | > 100 µM | > 100 µM | > 100 µM | > 100 | > 100 µM | > 100 µM |  |  |  |  |  |  |  | 
Fc1cc(-c2cc(-c3ccc4c(c3)OCO4)n[nH]2)c(Cl)cc1Cl | 28.9 | 3.8 µM | 5.81 µM | 20.7 µM | 13.7 µM | 11.1 µM | 7.06 µM | 4.94 | 10.8 µM | 49.1 µM |  |  |  |  |  |  |  | 
CC1=C(C)C(=O)C(C2=CC(=O)C=CC2=O)=C(C2=CC(=O)C=CC2=O)C1=O | > 76.2 | > 100 µM | > 100 µM | > 100 µM | > 100 µM | > 100 µM | > 100 µM | 42.5 | > 56.6 µM | > 100 µM |  |  |  |  |  |  |  | 
C[N+](C)(CCNC(=O)c1cccc2cc3ccccc3nc12)Cc1ccc([N+](=O)[O-])s1 | > 25 | > 25 µM | > 25 µM | > 25 µM | > 25 µM | > 25 µM | > 25 µM | > 25 | > 25 µM | > 25 µM |  |  |  |  |  |  |  | 
C=CCn1c(-c2ccc([N+](=O)[O-])cc2)csc1=N | > 100 | > 100 µM | > 100 µM | > 100 µM | > 100 µM | > 100 µM | > 100 µM | > 100 | > 100 µM | > 100 µM |  |  |  |  |  |  |  | 
c1ccc(CN2CCN3CCN(CC2)CCN(Cc2ccccc2)CC3)cc1 | 63.3 | 14.9 µM | 32.5 µM | 17.6 µM | 28.6 µM | 18.5 µM | 23.5 µM | 18.4 | > 88.3 µM | > 88.8 µM |  |  |  |  |  |  |  | 
